Assay results published in patent publication US9796733B2, “Imidazo-pyrazine derivatives useful as soluble guanylate cyclase activators” (Merck Sharp & Dohme Corp., priority 2014, dated 2017).

Target: T1, sGC α1/β1 heterodimer (Homo sapiens, UniProt Q02108+Q02153)
T1 construct: expressed in transfected cells; host or cells: CHO-K1 (clone #7, CHO-K1/sGC)
T1 sequence (Q02108 1-690): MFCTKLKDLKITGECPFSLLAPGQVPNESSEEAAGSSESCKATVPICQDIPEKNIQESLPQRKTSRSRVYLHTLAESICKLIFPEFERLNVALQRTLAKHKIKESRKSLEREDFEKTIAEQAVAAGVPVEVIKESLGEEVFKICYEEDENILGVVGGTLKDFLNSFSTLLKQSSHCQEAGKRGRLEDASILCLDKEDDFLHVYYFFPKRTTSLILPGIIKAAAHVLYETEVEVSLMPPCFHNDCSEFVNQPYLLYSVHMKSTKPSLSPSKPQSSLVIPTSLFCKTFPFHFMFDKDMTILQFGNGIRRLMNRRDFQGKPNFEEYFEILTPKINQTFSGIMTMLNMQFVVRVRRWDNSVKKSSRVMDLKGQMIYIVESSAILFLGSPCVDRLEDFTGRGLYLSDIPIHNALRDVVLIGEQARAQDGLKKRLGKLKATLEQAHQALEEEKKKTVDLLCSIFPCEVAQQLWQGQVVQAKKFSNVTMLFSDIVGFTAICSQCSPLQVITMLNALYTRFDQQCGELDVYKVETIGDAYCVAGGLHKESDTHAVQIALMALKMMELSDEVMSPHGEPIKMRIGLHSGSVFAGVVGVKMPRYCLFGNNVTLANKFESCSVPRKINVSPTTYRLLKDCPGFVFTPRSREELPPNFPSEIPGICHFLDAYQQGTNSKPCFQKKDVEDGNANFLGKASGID
T1 sequence (Q02153 1-619): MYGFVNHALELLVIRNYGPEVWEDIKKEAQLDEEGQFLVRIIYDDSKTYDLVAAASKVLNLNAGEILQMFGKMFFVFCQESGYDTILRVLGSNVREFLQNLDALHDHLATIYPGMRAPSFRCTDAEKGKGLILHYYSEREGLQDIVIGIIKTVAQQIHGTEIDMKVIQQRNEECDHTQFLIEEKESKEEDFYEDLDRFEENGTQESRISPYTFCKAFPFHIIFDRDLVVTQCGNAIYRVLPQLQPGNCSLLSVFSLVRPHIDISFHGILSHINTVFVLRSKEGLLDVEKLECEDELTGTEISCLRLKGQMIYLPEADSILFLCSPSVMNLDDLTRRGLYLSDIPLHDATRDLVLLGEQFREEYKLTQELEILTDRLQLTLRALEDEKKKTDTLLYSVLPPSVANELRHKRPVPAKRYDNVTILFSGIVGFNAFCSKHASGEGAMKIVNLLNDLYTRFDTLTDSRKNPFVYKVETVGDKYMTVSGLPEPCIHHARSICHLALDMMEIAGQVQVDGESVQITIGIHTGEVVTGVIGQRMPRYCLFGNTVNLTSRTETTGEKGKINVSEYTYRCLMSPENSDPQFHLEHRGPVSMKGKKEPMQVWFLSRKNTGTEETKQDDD
Assay: Cell-based sGC functional assay (CASA assay): cGMP generation in CHO-K1/sGC cells, HTRF detection
Conditions: for Emax: CHO-K1, percent activation relative to standard Compound A in CHO-K1/sGC cells, read-out: % Act.; for EC50: inflection point (IP) of cGMP generation in CHO-K1/sGC cells, 4P fit, activity expressed as percentage of Compound A
Text: Biological Assay 1: Cell-Based sGC Functional Assay (CASA Assay)
sGC is a heme-containing enzyme that converts GTP to secondary messenger cGMP. Increases in cGMP levels affect several physiological processes including vasorelaxation through multiple downstream pathways. […] Heme-dependent activators (HDAs) preferentially activate sGC containing a ferrous heme group. To determine the effect of sGC activators on enzyme activity, the CASA assay was developed to monitor the generation of cGMP in a cell line that stably expresses the heterodimeric sGC protein.
A CHO-K1 cell line stably expressing the sGC α1/β1 heterodimer was generated using a standard transfection protocol. CHO-K1 cells were transfected with plasmids pIREShyghsGCal and pIRESneo-hsGCβ1 simultaneously using FUGENE reagent. Clones that stably express both subunits were selected with hygromycin and neomycin for 2 weeks. Clone #7 was chosen for the assay and was designated CHO-K1/sGC. CHO-K1/sGC cells were maintained in F-K12 medium containing 10% heat-inactivated Fetal Bovine Serum (FBS), 100 μg/mL penicillin/streptomycin, 0.5 mg/mL hygromycin and 0.25 mg/mL G418. The cells were then cryopreserved in LN2. On the day of the assay, cells thawed and resuspended in EBSS Assay Buffer (Sigma, E3024) supplemented with 5 mM MgCl2, 10 mM HEPES (4-(2-hydroxyethyl)piperazine-1-ethanesulfonic acid) and 0.05% BSA (bovine serum albumin) (EAB) and cell density was then adjusted to 4×10^5/mL with EAR IBMX (3-isobutyl-1-methylxanthin, 0.5 mM) was added to inhibit degradation of cGMP. Compounds were diluted from DMSO stock solutions and added to the assay at a final DMSO concentration of 2.5%. Cells were incubated with compounds in the presence and absence of 1 μM of Diethylenetriamine/nitric oxide adduct (DETA-NO; Sigma, 17018) for 1 hr at 37° C. At the end of the incubation period, the reaction was terminated and the cells were lysed with the detection reagents from Cisbio Kits. The level of intracellular cGMP was determined using an HTRF-based assay kit (CisBio, 62GM2PEC), which detects the displacement of a fluorescence labeled cGMP from its specific antibody. The cGMP produced by test compounds was directly compared to the maximum cGMP production (this value was set to equal 100% activation.) of the published sGC-HDA Compound A:
[drawing 597] (Example 1 in WO 2010/065275, published Jun. 10, 2010). The test compounds' activities were then expressed as a percentage of Compound A, the standard in every experiment. This percent activation was calculated either in the presence or absence of DETA-NO which was then plotted. IP and maximum fold induction was derived using ADA analysis software for 4P fit.
The compounds in the Examples of the instant invention had inflection points (IP) less than or equal to 10 μM and more particularly less than or equal to about 1 μM.

Emax | EC50 | % Act. (percent activation relative to standard Compound A in CHO-K1/sGC cells) | SMILES
102% | 124 nM |  | CC1(c2ccc(Cl)cc2)C(=O)Nc2nc(-c3cn4ccnc4cn3)nc(N3CCC(C(F)(F)F)CC3)c21 (centres unmarked) [Example 280A, 5-(4-chlorophenyl)-2-(imidazo[1,2-a]pyrazin-6-yl)-5-methyl-4-(4-(trifluromethyl)piperdin-1-yl)-5H-pyrrolo[2,3-d]pyrimidin-6(7H)-one]
122% | 843 nM |  | Cc1cncc(C2(C3CC3)C(=O)Nc3nc(-c4cn5ccnc5c(CCC(F)(F)C(F)(F)F)n4)nc(N)c32)n1 (single isomer, unassigned) [Example 366B, 4-amino-5-cyclopropyl-5-(6-methylpyrazin-2-yl)-2-(8-(3,3,4,4,4-pentafluorobutyl)imidazo[1,2-a]pyrazin-6-yl)-5H-pyrrolo[2,3-d]pyrimidin-6(7H)-one]
116% | 822 nM |  | CC1(c2ccc(F)cc2)C(=O)Nc2nc(-c3cn4c(CCC5CCCCC5)cnc4cn3)nc(N)c21 (centres unmarked) [Example 261A, 4-Amino-2-(3-(2-cyclohexylethyl)imidazo[1,2-a]pyrazin-6-yl)-5-(4-fluorophenyl)-5-methyl-5H-pyrrolo[2,3-d]pyrimidin-6(7H)-one]
 | 959 nM | 154% | CC1(C(=O)NC2CC2)C(=O)Nc2nc(-c3cn4ccnc4c(Cc4cccc(F)c4)n3)nc(N)c21 (single isomer, unassigned) [Example 36B, 4-amino-N-cyclopropyl-2-(8-(3-fluorobenzyl)imidazo[1,2-a]pyrazin-6-yl)-5-methyl-6-oxo-6,7-dihydro-5H-pyrrolo[2,3-d]pyrimidine-5-carboxamide]
119% | 11 nM |  | CC1(c2ccc(Cl)cc2)C(=O)Nc2nc(-c3cn4ccnc4c(Cc4ccc(F)cc4)n3)nc(N)c21 (centres unmarked) [Example 99A, 4-amino-5-(4-chlorophenyl)-2-(8-(4-fluorobenzyl)imidazo[1,2-a]pyrazin-6-yl)-5-methyl-5H-pyrrolo[2,3-d]pyrimidin-6(7H)-one]
88% | 168 nM |  | Cc1cn2cc(-c3nc(N)c4c(n3)NC(=O)C4(C)c3ccc(F)cn3)nc(Cc3ccc(F)cc3)c2n1 (centres unmarked) [Example 162B, 4-amino-2-(8-(4-fluorobenzyl)-2-methylimidazo[1,2-a]pyrazin-6-yl)-5-(5-fluoropyridin-2-yl)-5-methyl-5H-pyrrolo[2,3-d]pyrimidin-6(7H)-one]
110% | 13 nM |  | CC1(c2ccc(F)cc2)C(=O)Nc2nc(-c3cn4ccnc4c(Cc4c(F)ccc(F)c4F)n3)nc(N)c21 (centres unmarked) [Example 98A, 4-amino-5-(4-fluorophenyl)-5-methyl-2-(8-(2,3,6-trifluorobenzyl)imidazo[1,2-a]pyrazin-6-yl)-5H-pyrrolo[2,3-d]pyrimidin-6(7H)-one]
90% | 504 nM |  | CC1(c2ccc(F)cc2)C(=O)Nc2nc(-c3cn4c(Cc5ccccc5)cnc4c(CCC(F)(F)C(F)(F)F)n3)nc(N)c21 (centres unmarked) [Example 260A, 4-Amino-2-(3-benzyl-8-(3,3,4,4,4-pentafluorobutyl)imidazo[1,2-a]pyrazin-6-yl)-5-(4-fluorophenyl)-5-methyl-5H-pyrrolo[2,3-d]pyrimidin-6(7H)-one]
133% | 127 nM |  | CCc1ccc(C2(C)C(=O)Nc3nc(-c4cn5ccnc5c(CCC(F)(F)C(F)(F)F)n4)nc(N)c32)nc1 (centres unmarked) [Example 242B, 4-amino-5-(5-ethylpyridin-2-yl)-5-methyl-2-(8-(3,3,4,4,4-pentafluorobutyl)imidazo [1,2-a]pyrazin-6-yl)-5H-pyrrolo[2,3-d]pyrimidin-6(7H)-one]
90% | 130 nM |  | CC1(c2cccc(F)c2)C(=O)Nc2nc(-c3cn4ccnc4c(CCC(F)(F)F)n3)nc(N)c21 (centres unmarked) [Example 191A, 4-amino-5-(3-fluorophenyl)-5-methyl-2-(8-(3,3,3-trifluoropropyl)imidazo[1,2-a]pyrazin-6-yl)-5H-pyrrolo[2,3-d]pyrimidin-6(7H)-one]
